Blank lines part the entries; values can stand above or below the compound they belong to.
What was measured:
[1] = biological target: T1, Tyrosine-protein kinase SYK (Homo sapiens, UniProt P43405); assay: Inhibition of Syk (unknown origin) preincubated for 20 mins followed by 33P-gamma-ATP measured after 120 mins by HotSpot assay
[2] = biological target: T1, Tyrosine-protein kinase SYK; assay: Inhibition of Syk (unknown origin) assessed as enzyme activity at 2 uM preincubated for 20 mins followed by 33P-gamma-ATP measured after 120 mins by HotSpot assay relative to control; design: scale not given: the % may be the effect or the level left; details: time 140.0 min
Ramos = assay: Inhibition of […] in serum-starved human Ramos cells incubated for 1 hr followed by anti-human IgM F(ab)2 measured after 5 mins; type: functional, cell-based
MV4-11 [3] = assay: Inhibition of cell viability in human MV4-11 cells incubated for 72 hrs by Cell Titer Glo assay; type: functional, cell-based; details: MV4-11, 72 h
[4] = Metabolic stability in human liver microsomes assessed as intrinsic clearance at […] incubated for 60 mins in presence of NADPH by LC-MS/MS analysis; type: ADME, Microsome; details: read-out: CLH
[5] = Metabolic stability in human liver microsomes assessed as half life at […] incubated for 60 mins in presence of NADPH by LC-MS/MS analysis; type: ADME, Microsome
[6] = Half life in fasted Sprague-Dawley rat at 1 mg/kg, iv measured for 24 hrs by LC-MS/MS analysis; type: ADME, organism-based; details: in vivo
[7] = C0 in fasted Sprague-Dawley rat at 1 mg/kg, iv measured for 24 hrs by LC-MS/MS analysis; type: ADME, organism-based; details: in vivo
[8] = AUC in fasted Sprague-Dawley rat at 1 mg/kg, iv measured for 24 hrs by LC-MS/MS analysis; type: ADME, organism-based; details: in vivo
[9] = Clearance in fasted Sprague-Dawley rat at 1 mg/kg, iv measured for 24 hrs by LC-MS/MS analysis; type: ADME, organism-based; details: in vivo
[10] = Volume of distribution at steady state in fasted Sprague-Dawley rat at 1 mg/kg, iv measured for 24 hrs by LC-MS/MS analysis; type: ADME, organism-based; details: in vivo, read-out: Vdss
[11] = Half life in fasted Sprague-Dawley rat at 10 mg/kg, po measured for 24 hrs by LC-MS/MS analysis; type: ADME, organism-based; details: in vivo
[12] = Tmax in fasted Sprague-Dawley rat at 10 mg/kg, po measured for 24 hrs by LC-MS/MS analysis; type: ADME, organism-based; details: in vivo
[13] = Cmax in fasted Sprague-Dawley rat at 10 mg/kg, po measured for 24 hrs by LC-MS/MS analysis; type: ADME, organism-based; details: in vivo
[14] = AUC in fasted Sprague-Dawley rat at 10 mg/kg, po measured for 24 hrs by LC-MS/MS analysis; type: ADME, organism-based; details: in vivo
[15] = Oral bioavailability in fasted Sprague-Dawley rat at 10 mg/kg measured for 24 hrs by LC-MS/MS analysis; type: ADME, organism-based; details: in vivo
Rec1 = assay: Antiproliferative activity against human REC1 cells assessed as inhibition of cell viability incubated for 72 hrs by Cell Titer Glo assay; type: functional, cell-based; details: Rec1, 72 h
DOHH-2 = assay: Antiproliferative activity against human DOHH-2 cells assessed as inhibition of cell viability incubated for 72 hrs by Cell Titer Glo assay; type: functional, cell-based; details: DOHH-2, 72 h
SU-DHL-6 = assay: Antiproliferative activity against human SU-DHL-6 cells assessed as inhibition of cell viability incubated for 72 hrs by Cell Titer Glo assay; type: functional, cell-based; details: SU-DHL-6, 72 h
Daudi = assay: Antiproliferative activity against human Daudi cells assessed as inhibition of cell viability incubated for 72 hrs by Cell Titer Glo assay; type: functional, cell-based
TMD8 = assay: Antiproliferative activity against human TMD8 cells assessed as inhibition of cell viability incubated for 72 hrs by Cell Titer Glo assay; type: functional, cell-based; details: TMD8, 72 h
[16] = biological target: T1, Tyrosine-protein kinase SYK; assay: Inhibition of SYK phosphorylation in human Ramos cells incubated for 2 hrs by Western blot analysis; type: cell-based; details: dose <= 500.0 nM
[17] = biological target: T1, Tyrosine-protein kinase SYK; assay: Inhibition of SYK in human Ramos cells assessed as decrease in PLC-gamma-2 phosphorylation incubated for 2 hrs by Western blot analysis; type: cell-based; details: dose <= 500.0 nM
MV4-11 [18] = assay: Antitumor activity against human MV4-11 cells xenografted in nude BALB/c mouse assessed as tumor growth inhibition at 1 mg/kg, iv qd for 21 days administered consecutively relative to control; type: functional; details: MV4-11, 504 h, time 21 day, read-out: TGI
[19] = Toxicity in nude BALB/c mouse xenografted with human MV4-11 cells assessed as body weight loss at 1 mg/kg, iv qd for 21 days administered consecutively; type: organism-based; details: in vivo, 504 h, time 21 day
[20] = Toxicity in nude BALB/c mouse xenografted with human MV4-11 cells assessed as animal mortality at 1 mg/kg, iv qd for 21 days administered consecutively; type: organism-based; details: in vivo, 504 h, time 21 day
[21] = Toxicity in nude BALB/c mouse xenografted with human MV4-11 cells assessed as systemic cytotoxicity at 1 mg/kg, iv qd for 21 days administered consecutively; type: organism-based; details: in vivo, 504 h, time 21 day

SMILES: c1ccc2[nH]c(-c3n[nH]cc3Nc3ncnc4ccccc34)nc2c1
- IC50 [1]: 107 nM

SMILES: Nc1nccc(Nc2c[nH]nc2-c2nc3ccccc3s2)n1
- IC50 [1]: 163 nM

SMILES: c1ccc2[nH]c(-c3n[nH]cc3Nc3ccnc(NC4CCCC4)n3)nc2c1
- Activity [2]: 36.3%

SMILES: Fc1ccc2[nH]c(-c3n[nH]cc3Nc3ncnc4[nH]ccc34)nc2c1
- IC50 [1]: 33.6 nM

SMILES: c1ccc2[nH]c(-c3n[nH]cc3NC3CCNCC3)nc2c1
- Activity [2]: 82.7%

SMILES: Nc1cccc(CNc2c[nH]nc2-c2nc3ccccc3[nH]2)c1
- Activity [2]: 52.6%

SMILES: c1cc(N2CCCCC2)c2nc(-c3n[nH]cc3Nc3ncnc4[nH]ccc34)[nH]c2c1
- IC50 [1]: 58 nM

SMILES: Cc1nc(Cl)cc(Nc2c[nH]nc2-c2nc3ccccc3[nH]2)n1
- IC50 [1]: 1220 nM

SMILES: Clc1ccc2[nH]c(-c3n[nH]cc3Nc3ncnc4[nH]ccc34)nc2c1
- IC50 [1]: 172 nM

SMILES: CC(C)(C)c1ccc2[nH]c(-c3n[nH]cc3Nc3ncnc4[nH]ccc34)nc2c1
- IC50 [1]: 67.4 nM

SMILES: c1ccc2[nH]c(-c3n[nH]cc3NCc3ccncc3)nc2c1
- IC50 [1]: 1780 nM

SMILES: CC(C)N1CCN(c2ccc3[nH]c(-c4n[nH]cc4Nc4ncnc5[nH]ccc45)nc3c2)CC1
- IC50 [1]: 0.52 nM
- IC50 (Ramos): 18 nM
- IC50 (MV4-11 [3]): 1.5 nM
- microsomal CLint [4]: 15.4 µL/min/mg
- half-life [5]: 1.88 h
- half-life [6]: 6.4 h
- C0 at 24 h [7]: 1240 ng/mL
- AUC at 24 h [8]: 514 ng·h/mL
- clearance [9]: 33.3 mL/min/kg
- Vd [10]: 8.93 L/kg
- half-life [11]: 3.79 h
- Tmax [12]: 0.833 h
- Cmax [13]: 18.1 ng/mL
- AUC at 24 h [14]: 78.8 ng·h/mL
- bioavailability [15]: 1.5%
- IC50 (Rec1): 34.3 nM
- IC50 (DOHH-2): 8.68 nM
- IC50 (SU-DHL-6): 216 nM
- IC50 (Daudi): 719 nM
- IC50 (TMD8): 10.9 nM
- inhibition [16]: Dose-Dependent Effect
- inhibition [17]: Dose-Dependent Effect
- inhibition in vivo at 1 mg/kg (MV4-11 [18]): 99.3%
- Activity [19]: Non-Toxic
- Activity [20]: Non-Toxic
- Activity [21]: Non-Toxic

Now from value to compound:

- IC50 [1]: 9.3 nM
SMILES: Cc1ccc2[nH]c(-c3n[nH]cc3Nc3ncnc4[nH]ccc34)nc2c1

- IC50 [1]: 21.4 nM
SMILES: Cc1cc2nc(-c3n[nH]cc3Nc3ncnc4c3ccn4C)[nH]c2cc1C

- IC50 [1]: 1.1 nM
- IC50 (Ramos): 30.7 nM
- IC50 (MV4-11 [3]): 12.4 nM
- microsomal CLint [4]: 63.9 µL/min/mg
- half-life [5]: 0.453 h
SMILES: c1nc(Nc2c[nH]nc2-c2nc3cc(OCCN4CCOCC4)ccc3[nH]2)c2cc[nH]c2n1

- IC50 [1]: 14.5 nM
- IC50 (Ramos): 26.8 nM
- IC50 (MV4-11 [3]): 82.5 nM
- microsomal CLint [4]: 78.1 µL/min/mg
- half-life [5]: 0.74 h
SMILES: c1cc(N2CCCC2)c2nc(-c3n[nH]cc3Nc3ncnc4[nH]ccc34)[nH]c2c1

- IC50 [1]: 8.6 nM
- IC50 (Ramos): 78.5 nM
- IC50 (MV4-11 [3]): 36.1 nM
- microsomal CLint [4]: 75.1 µL/min/mg
- half-life [5]: 0.308 h
SMILES: CCN(CC)c1ccc2[nH]c(-c3n[nH]cc3Nc3ncnc4[nH]ccc34)nc2c1

- IC50 [1]: 5.5 nM
- IC50 (Ramos): 78.9 nM
- IC50 (MV4-11 [3]): 27.6 nM
SMILES: COCCOc1ccc2[nH]c(-c3n[nH]cc3Nc3ncnc4[nH]ccc34)nc2c1

- IC50 [1]: 11.1 nM
- IC50 (Ramos): 18.5 nM
- IC50 (MV4-11 [3]): 20.4 nM
- microsomal CLint [4]: 52.2 µL/min/mg
- half-life [5]: 0.555 h
SMILES: CN(C)c1cccc2[nH]c(-c3n[nH]cc3Nc3ncnc4[nH]ccc34)nc12

- IC50 [1]: 3 nM
- IC50 (Ramos): 46.8 nM
- IC50 (MV4-11 [3]): 4.9 nM
- microsomal CLint [4]: 16.4 µL/min/mg
- half-life [5]: 1.41 h
SMILES: C[C@@H]1CN(c2ccc3[nH]c(-c4n[nH]cc4Nc4ncnc5[nH]ccc45)nc3c2)C[C@H](C)O1

- IC50 [1]: 3.6 nM
- IC50 (Ramos): 47.7 nM
- IC50 (MV4-11 [3]): 29.8 nM
- microsomal CLint [4]: 70.4 µL/min/mg
- half-life [5]: 0.328 h
SMILES: Cc1cc2nc(-c3n[nH]cc3Nc3ncnc4[nH]ccc34)[nH]c2cc1C

- IC50 [1]: 20.5 nM
SMILES: c1ccc2[nH]c(-c3n[nH]cc3Nc3ncnc4[nH]ccc34)nc2c1

- IC50 [1]: 1.6 nM
- IC50 (Ramos): 49.5 nM
- IC50 (MV4-11 [3]): 7.9 nM
- microsomal CLint [4]: 13.2 µL/min/mg
- half-life [5]: 1.75 h
- half-life [6]: 2.47 h
- C0 at 24 h [7]: 763 ng/mL
- AUC at 24 h [8]: 332 ng·h/mL
- clearance [9]: 51.7 mL/min/kg
- Vd [10]: 6.99 L/kg
SMILES: CN1CCN(c2ccc3[nH]c(-c4n[nH]cc4Nc4ncnc5[nH]ccc45)nc3c2)CC1

— ChEMBL document CHEMBL5620426, “Discovery of 3-(1H-benzo[d]imidazole-2-yl)-1H-pyrazol-4 -amine derivatives as novel and potent syk inhibitors for the treatment of hematological malignancies” (Eur J Med Chem, 2023)
